From patent US10351540B2, “1,2-dithiolane and dithiol compounds useful in treating mutant EGFR-mediated diseases and conditions” (Sabila Biosciences LLC, priority 2017, dated 2019)
pIC50, pKd: −log10 of the molar value.

target: T1, EGFR T790M (Homo sapiens, UniProt P00533, T790M); assay: KINOMEscan competition binding kinase assay, Kd (Method B); conditions: Method B (Kd values)
T1 construct: made in house; host or cells: T7 phage in E. coli (BL21-derived) or HEK-293 cells
T1 sequence (P00533 25-1210 T790M): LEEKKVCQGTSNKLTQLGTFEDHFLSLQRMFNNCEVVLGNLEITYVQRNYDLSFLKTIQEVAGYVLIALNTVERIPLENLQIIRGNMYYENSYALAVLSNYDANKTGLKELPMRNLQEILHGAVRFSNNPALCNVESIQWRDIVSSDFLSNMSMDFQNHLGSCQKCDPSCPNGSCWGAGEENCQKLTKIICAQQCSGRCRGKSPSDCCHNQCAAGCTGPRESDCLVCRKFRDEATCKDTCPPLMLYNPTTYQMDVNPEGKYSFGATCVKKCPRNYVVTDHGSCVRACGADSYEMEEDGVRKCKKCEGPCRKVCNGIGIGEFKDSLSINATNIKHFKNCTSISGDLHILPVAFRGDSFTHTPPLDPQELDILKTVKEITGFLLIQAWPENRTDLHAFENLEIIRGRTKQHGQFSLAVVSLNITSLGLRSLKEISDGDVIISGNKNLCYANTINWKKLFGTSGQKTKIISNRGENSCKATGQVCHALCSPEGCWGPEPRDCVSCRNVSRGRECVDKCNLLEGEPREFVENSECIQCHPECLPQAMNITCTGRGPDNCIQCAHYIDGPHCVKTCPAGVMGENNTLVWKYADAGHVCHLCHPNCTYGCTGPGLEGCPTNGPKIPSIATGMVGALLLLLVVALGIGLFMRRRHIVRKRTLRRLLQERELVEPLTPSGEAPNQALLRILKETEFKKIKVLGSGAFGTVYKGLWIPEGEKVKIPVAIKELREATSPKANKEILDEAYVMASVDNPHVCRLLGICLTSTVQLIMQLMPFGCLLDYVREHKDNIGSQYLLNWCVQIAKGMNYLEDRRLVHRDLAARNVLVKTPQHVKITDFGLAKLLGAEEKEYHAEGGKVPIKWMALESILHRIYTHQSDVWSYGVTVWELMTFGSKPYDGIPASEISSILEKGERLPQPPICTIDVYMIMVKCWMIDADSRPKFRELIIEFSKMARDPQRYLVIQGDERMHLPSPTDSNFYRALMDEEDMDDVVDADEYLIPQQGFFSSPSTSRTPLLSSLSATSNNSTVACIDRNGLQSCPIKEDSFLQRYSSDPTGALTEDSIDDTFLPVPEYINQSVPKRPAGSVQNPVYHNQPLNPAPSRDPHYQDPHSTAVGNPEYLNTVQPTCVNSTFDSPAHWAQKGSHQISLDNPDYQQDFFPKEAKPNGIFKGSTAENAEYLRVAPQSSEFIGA
Procedure: The assay is performed by combining three components: DNA-tagged kinase; immobilized ligand; and a test compound. The ability of the test compound to compete with the immobilized ligand is measured via quantitative PCR of the DNA tag.
For most assays, kinase-tagged T7 phage strains were prepared in an E. coli host derived from the BL21 strain. E. coli were grown to log-phase and infected with T7 phage and incubated with shaking at 32° C. until lysis. The lysates were centrifuged and filtered to remove cell debris. The remaining kinases were produced in HEK-293 cells and subsequently tagged with DNA for qPCR detection. Streptavidin-coated magnetic beads were treated with biotinylated small molecule ligands for 30 minutes at room temperature to generate affinity resins for kinase assays. The liganded beads were blocked with excess biotin and washed with blocking buffer (SeaBlock (Pierce), 1% BSA, 0.05% Tween 20, 1 mM DTT) to remove unbound ligand and to reduce non-specific binding. […] All reactions were performed in polystyrene 96-well plates in a final volume of 0.135 ml. […] The kinase concentration in the eluates was measured by qPCR.

Row | SMILES | pKd
1 | COc1cc(N(C)CCN(C)C)c(NC(=O)C(CSC(C)=O)CSC(C)=O)cc1Nc1nccc(-c2cn(C)c3ccccc23)n1 [Example 28, S,S′-(2-((2-((2-(dimethylamino)ethyl)(methyl)amino)-4-methoxy-5-((4-(1-methyl-1H-indol-3-yl)pyrimidin-2-yl)amino)phenyl)carbamoyl)propane-1,3-diyl)diethanethioate] | 6.00 to 7.00
2 | COc1cc(N(C)CCN(C)C)c(NC(=O)C2CSSC2)cc1Nc1nccc(-c2cn(C)c3ccccc23)n1 [Example 29, N-(2-((2-(dimethylamino)ethyl)(methyl)amino)-4-methoxy-5-((4-(1-methyl-1H-indol-3-yl)pyrimidin-2-yl)amino)phenyl)-1,2-dithiolane-4-carboxamide] | 6.00 to 7.00

The remaining lines, values ahead:

Row | pKd | SMILES
3 | < 5.00 | COc1cc(N2CCN(C)CC2)ccc1Nc1ncc(Cl)c(Oc2cccc(NC(=O)C(CSC(C)=O)CSC(C)=O)c2)n1 [Example 35, S,S′-(2-((3-((5-chloro-2-((2-methoxy-4-(4-methylpiperazin-1-yl)phenyl)amino)pyrimidin-4-yl)oxy)phenyl)carbamoyl)propane-1,3-diyl)diethanethioate]
4 | 5.00 to 6.00 | COc1cc(N2CCN(C)CC2)ccc1Nc1ncc(Cl)c(Oc2cccc(NC(=O)C3CSSC3)c2)n1 [Example 36, N-(3-((5-chloro-2-((2-methoxy-4-(4-methylpiperazin-1-yl)phenyl)amino)pyrimidin-4-yl)oxy)phenyl)-1,2-dithiolane-4-carboxamide]
5 | 6.00 to 7.00 | COc1cc(N2CCN(C)CC2)ccc1Nc1ncc(Cl)c(Nc2cccc(NC(=O)C(CSC(C)=O)CSC(C)=O)c2)n1 [Example 40, S,S′-(2-((3-((5-chloro-2-((2-methoxy-4-(4-methylpiperazin-1-yl)phenyl)amino)pyrimidin-4-yl)amino)phenyl)carbamoyl)propane-1,3-diyl)diethanethioate]
6 | 7.00 to 9.00 | COc1cc(N2CCN(C)CC2)ccc1Nc1ncc(Cl)c(Nc2cccc(NC(=O)C3CSSC3)c2)n1 [Example 41, N-(3-((5-chloro-2-((2-methoxy-4-(4-methylpiperazin-1-yl)phenyl)amino)pyrimidin-4-yl)amino)phenyl)-1,2-dithiolane-4-carboxamide]

target: T2, EGFR (L858R) (Homo sapiens, UniProt P00533, L858R); assay: KinaseSeeker competition binding assay, rabbit reticulocyte lysate (Method A); conditions: 7-point curve, duplicate
T2 construct: made in house; host or cells: cell-free translation in rabbit reticulocyte lysate
Procedure: Method A: Rabbit Reticulocyte Lysate Assay Design: KinaseSeeker is a homogeneous competition binding assay where the displacement of an active site dependent probe by an inhibitor is measured by a change in luminescence signal. Luminescence readout translates into a highly sensitive and robust assay with low background and minimal interference from test compounds.
10 mM stock solutions of test compounds were serially diluted in DMSO to make assay stocks. Prior to initiating IC50 determinations, the test compounds were evaluated for false positive against split-luciferase.
Each test compound was screened in duplicate against target kinase i.e. EGFR (L858R) at 7 different concentrations. For kinase assays, Cfluc-kinase was translated along with Fos-Nfluc using a cell-free system (rabbit reticulocyte lysate) at 30° C. for 90 min. […] 80 uL of luciferin assay reagent was added to each solution and luminescence was immediately measured on a luminometer.
The % Inhibition and % Activity Remaining was calculated using the following equation: % Inhibition=[(ALUControl=ALUSample)/ALUControl]×100 % Activity Remaining=100−% Inhibition
The % Activity was plotted against compound concentration and the IC50 was determined for each compound using a 7-point curve (Jester, B. W.; et. al. J. Am. Chem. Soc. 2010, 132, 11727-11735. Jester, B. W.; et. al. J. Med. Chem. 2012, 55, 1526-1537). […]

T2 sequence (P00533 25-1210 L858R): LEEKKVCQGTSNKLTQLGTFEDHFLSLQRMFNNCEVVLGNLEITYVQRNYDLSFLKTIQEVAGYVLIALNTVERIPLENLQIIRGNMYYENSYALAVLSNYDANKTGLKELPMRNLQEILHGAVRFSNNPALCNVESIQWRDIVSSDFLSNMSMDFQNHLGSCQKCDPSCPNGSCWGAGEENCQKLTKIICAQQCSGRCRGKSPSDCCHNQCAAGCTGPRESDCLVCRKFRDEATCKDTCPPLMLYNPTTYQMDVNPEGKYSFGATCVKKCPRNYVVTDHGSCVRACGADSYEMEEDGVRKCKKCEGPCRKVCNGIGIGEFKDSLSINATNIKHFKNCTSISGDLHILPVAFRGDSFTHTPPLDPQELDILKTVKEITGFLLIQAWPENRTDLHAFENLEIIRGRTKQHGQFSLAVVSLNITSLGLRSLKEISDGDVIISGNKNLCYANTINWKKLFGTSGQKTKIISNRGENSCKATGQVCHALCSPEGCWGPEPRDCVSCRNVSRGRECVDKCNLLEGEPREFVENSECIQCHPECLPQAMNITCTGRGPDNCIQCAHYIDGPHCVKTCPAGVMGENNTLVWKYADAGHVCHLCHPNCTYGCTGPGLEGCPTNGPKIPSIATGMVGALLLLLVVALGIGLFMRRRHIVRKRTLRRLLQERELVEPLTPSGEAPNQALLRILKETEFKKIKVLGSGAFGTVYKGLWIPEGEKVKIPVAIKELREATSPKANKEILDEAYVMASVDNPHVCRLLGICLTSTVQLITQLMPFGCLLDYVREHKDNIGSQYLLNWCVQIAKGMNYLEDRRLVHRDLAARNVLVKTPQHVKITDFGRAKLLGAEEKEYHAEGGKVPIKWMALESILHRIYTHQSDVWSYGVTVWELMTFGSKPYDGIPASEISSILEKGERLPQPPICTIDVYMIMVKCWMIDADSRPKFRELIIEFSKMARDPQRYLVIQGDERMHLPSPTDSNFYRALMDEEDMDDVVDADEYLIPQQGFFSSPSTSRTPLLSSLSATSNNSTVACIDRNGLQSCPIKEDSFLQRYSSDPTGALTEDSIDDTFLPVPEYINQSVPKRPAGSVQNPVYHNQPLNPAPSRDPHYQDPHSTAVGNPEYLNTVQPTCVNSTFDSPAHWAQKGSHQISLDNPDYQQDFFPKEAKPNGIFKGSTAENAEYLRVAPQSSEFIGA

Row | pIC50 | SMILES
7 | 5.00 to 6.00 | CCOc1ncnc(Nc2ccc(OCc3cccc(F)c3)c(Cl)c2)c1NC(=O)CC1CCSS1 (centres unmarked) [Example 20]
8 | < 5.00 | O=C(C[C@@H]1CCSS1)Nc1c(Nc2ccc(OCc3cccc(F)c3)c(Cl)c2)ncnc1OC[C@H](O)CO [Example 24, N-(4-((3-chloro-4-((3-fluorobenzyl)oxy)phenyl)amino)-6-((R)-2,3-dihydroxypropoxy)pyrimidin-5-yl)-2-((R)-1,2-dithiolan-3-yl)acetamide]
